Tests used:
intragastric pH = test: 48-hour intragastric pH-metry, Phase 1 exploratory dose-finding study in healthy subjects; type: in vivo, human; details: for Hours with pH >4 (Mean (SD)) / Hours with pH >4 (Median (min, max)) / Percentage of time with pH >4 (Mean) / Percentage of time with pH >4 (Median (min, max)): healthy subjects
From the text: The study was a single-centre, open-label, parallel-group, randomised exploratory dose-finding study designed to evaluate the PK, PD, safety and tolerability of repeated oral doses of linaprazan glurate (LG) at 3 dose levels, in healthy male and female subjects. About 36 subjects were randomised for an estimated total of 12 evaluable subjects per treatment arm.
Subjects came to the clinic for 3 visits. The screening (Visit 1) took place from Day −28 to Day −1 and included an eligibility check and review of health status. At Visit 2, subjects were admitted to the clinic on Day −1 and remained at the clinic until Day 4 for repeated dose of LG administration and safety, PK and PD assessments. The subjects fasted for at least 8 hours before the anticipated dosing time on Day 1. Water, but no other drinks, was allowed as desired except for 1 hour before and 30 minutes after dosing. In the morning of Day 1, subjects were randomised to one of 3 treatment arms: • LG 50 mg BID for 3 days (5 doses, last dose in the morning of Day 3) • LG 100 mg (2×50 mg) BID for 3 days (5 doses, last dose in the morning of Day 3) • LG 150 mg (3×50 mg) BID for 3 days (5 doses, last dose in the morning of Day 3)
Subjects were carefully monitored by clinical staff during and after dosing. […] The pH-metry assessment was started prior to Dose 3 (in the morning of Day 2) and continued for 48 hours, until 24 hours post last dose. Vital signs and ECG were checked at regular intervals and PK sampling was done at selected timepoints. A final end-of-study visit (Visit 3) took place on Day 7 (±2) or after early withdrawal. Each subject was expected to participate in the study for approximately 7 days from the day of randomisation (Day 1, Visit 2) to the End-of Study Visit. The Screening Visit was performed within 28 days prior to randomisation (Day −28 to Day −1).

[1] = Plasma pharmacokinetics / metabolism of linaprazan glurate; type: in vivo
[2] = 50 mg LG, 1 last dose in the morning (Day 3, "QD")
[3] = 50 mg LG, 2 doses (Day 2, BID), oral
[4] = 100 mg LG, 1 last dose in the morning (Day 3, "QD")
[5] = 100 mg LG, 2 doses (Day 2, BID), oral
[6] = 150 mg LG, 1 last dose in the morning (Day 3, "QD")
[7] = 150 mg LG, 2 doses (Day 2, BID), oral
[8] = 100 or 150 mg, two daily doses (Day 2) vs once daily (Day 3)

Structure (SMILES): Cc1cccc(C)c1CNc1cc(C(=O)NCCOC(=O)CCCC(=O)O)cn2c(C)c(C)nc12 [linaprazan glurate, 5-{2-[({8-[(2,6-dimethylbenzyl)amino]-2,3-dimethylimidazo[1,2-a]pyridine-6-yl}carbonyl)-amino]ethoxy}-5-oxopentanoic acid]
- Hours with pH >4 (Mean (SD)) (intragastric pH; [2]): 17.04 (5.33) hours
- Hours with pH >4 (Median (min, max)) (intragastric pH; [2]): 15.80 (6.8, 23.8) hours
- Percentage of time with pH >4 (Mean) (intragastric pH; [2]): 71.15%
- Percentage of time with pH >4 (Median (min, max)) (intragastric pH; [2]): 65.90 (28.6, 99.8) %
- Hours with pH >4 (Mean (SD)) (intragastric pH; [3]): 15.47 (4.83) hours
- Hours with pH >4 (Median (min, max)) (intragastric pH; [3]): 15.65 (8.5, 23.8) hours
- Percentage of time with pH >4 (Mean) (intragastric pH; [3]): 64.48%
- Percentage of time with pH >4 (Median (min, max)) (intragastric pH; [3]): 65.20 (35.4, 99.1) %
- Hours with pH >4 (Mean (SD)) (intragastric pH; [4]): 18.38 (3.84) hours
- Hours with pH >4 (Median (min, max)) (intragastric pH; [4]): 19.30 (11.6, 23.5) hours
- Percentage of time with pH >4 (Mean) (intragastric pH; [4]): 76.81%
- Percentage of time with pH >4 (Median (min, max)) (intragastric pH; [4]): 80.50 (48.9, 97.8) %
- Hours with pH >4 (Mean (SD)) (intragastric pH; [5]): 18.93 (4.83) hours
- Hours with pH >4 (Median (min, max)) (intragastric pH; [5]): 21.30 (7.0, 22.8) hours
- Percentage of time with pH >4 (Mean) (intragastric pH; [5]): 78.85%
- Percentage of time with pH >4 (Median (min, max)) (intragastric pH; [5]): 88.70 (29.1, 95.0) %
- Hours with pH >4 (Mean (SD)) (intragastric pH; [6]): 20.38 (3.51) hours
- Hours with pH >4 (Median (min, max)) (intragastric pH; [6]): 21.05 (15.5, 24.0) hours
- Percentage of time with pH >4 (Mean) (intragastric pH; [6]): 85.14%
- Percentage of time with pH >4 (Median (min, max)) (intragastric pH; [6]): 88.00 (64.9, 99.8) %
- Hours with pH >4 (Mean (SD)) (intragastric pH; [7]): 22.00 (2.60) hours
- Hours with pH >4 (Median (min, max)) (intragastric pH; [7]): 23.05 (16.6, 24.0) hours
- Percentage of time with pH >4 (Mean) (intragastric pH; [7]): 91.64%
- Percentage of time with pH >4 (Median (min, max)) (intragastric pH; [7]): 96.05 (69.3, 99.8) %
- additional hours with pH>4 (median), BID vs QD (intragastric pH; [8]): about two
- longer time with pH>4, BID vs QD (intragastric pH; [8]): about 10%
- plasma concentration of linaprazan glurate ([1]; following absorption): very low
- metabolism into linaprazan ([1]; following absorption into the blood stream): quickly metabolized into linaprazan
